Results as given in patent EP0070133B1, “Secondary phenylethanol amines, processes for their preparation and their pharmaceutical application” (priority 1981, dated 1983).
Structures can show the parent of a compound that is named as a salt. Where two headings read alike, the source gives them in different places.

Key:
[1] = system: Female CFLP mice; experiment: Anti-hyperglycaemic activity: subcutaneous glucose load in fasted mice, area under blood glucose curve; type: in vivo; settings: glucose 1 g/kg sc, 2 hour period, vs water control
Procedure: Female CFLP mice, each weighing approximately 25 g, were fasted for 24 hours prior to the study. The compounds under study were administered orally as an aqueous solution to each of 6 mice. 6 mice were given water as a control. 30 minutes later a blood sample (20 µl) was obtained from the tail for the analysis of blood glucose. Immediately after taking this blood sample, glucose (1 g/kg body weight) was administered subcutaneously to each mouse. Blood samples were then obtained from each mouse at 30 minute intervals for 120 minutes.
Compounds that produced a significant (P<0.05) reduction of blood glucose, compared with control mice given water, at any time interval, were considered active. The area under the blood glucose curve over the 2 hour period after the administration of the glucose was calculated for each compound and compared with the value for control animals.

[2] = system: Female CFLP mice; experiment: Effect on energy expenditure and food intake of mice; type: in vivo; settings: Mus musculus; for response vs control in vivo at 24.6 mg/kg / response vs control in vivo at 30.2 mg/kg / response vs control in vivo at 28.9 mg/kg / response vs control in vivo at 24.2 mg/kg / response vs control in vivo at 29.5 mg/kg / response vs control in vivo at 26.9 mg/kg / response vs control in vivo at 23.4 mg/kg / response vs control in vivo at 22 mg/kg / response vs control in vivo at 27.3 mg/kg / response vs control in vivo at 6.5 mg/kg / response vs control in vivo at 25.5 mg/kg / response vs control in vivo at 26.4 mg/kg / response vs control in vivo at 21.8 mg/kg / response vs control in vivo at 22.6 mg/kg / response vs control in vivo at 26.3 mg/kg / response vs control in vivo at 22.7 mg/kg / response vs control in vivo at 19.2 mg/kg: po, 21 h; for response vs control in vivo at 24.3 mg/kg: 24.3 mg/kg po; for response vs control in vivo at 24.3 mg/kg / response vs control in vivo at 18.4 mg/kg / response vs control in vivo at 23.1 mg/kg: mice, 21 hours after dosing, % of mice dosed with water; for response vs control in vivo at 18.4 mg/kg: 18.4 mg/kg po; for response vs control in vivo at 23.1 mg/kg: 23.1 mg/kg po
Procedure: Female CFLP mice each weighing approximately 24 g, were given food and water ad lib before and during the experiment. The compounds were dissolved in water by addition of one mole of hydrochloric acid per mole of compound and these solutions were administered orally to each of 12 mice. A further 12 mice were dosed orally with water. The mice were placed in boxes through which air was drawn and the oxygen content of the air leaving the boxes was measured. […] The food intake of the mice was measured over this same period of 21 hours. The results are expressed as a percentage of the mean food intake or rate of energy expenditure of the mice dosed with water.

[3] = system: Rat hearts; experiment: Cardiac activity: rat hearts perfused by the Langendorff procedure; settings: reference standard, maximum response, no dose given, perfused rat heart
Procedure: Rat hearts were perfused by the Langendorff procedure as follows:- • Hearts were dissected free within 30 seconds of death and reverse perfused via the aorta and coronary vessels with Krebs-Ringer bicarbonate solution (pH 7.4, 37°C) gassed with 95% oxygen:5% carbon dioxide at a flow rate between 8-12 cm^3/minute. Responses were observed after injection of drug dissolved in isotonic saline into the perfusion media.
Results are expressed as a percentage of the maximum response due to salbutamol.

[4] = read-out: Mean Energy Expenditure (%)

CNCCOc1ccc(CC(C)NCC(O)c2cc3ccccc3o2)cc1.Cl.Cl (stereo not drawn) [Example 4, N-[2-(4-(2-Methylaminoethoxy)phenyl)-1-methylethyl]-2-hydroxy-2-(2-benzofuranyl) ethanamine dihydrochloride]
Reduction in area under Blood glucose curve (%) ([1]; 2.5 μ moles/kg po): 18% | response vs control in vivo at 24.6 mg/kg [2, 4]: 110% | response vs control in vivo at 24.6 mg/kg ([2]; read-out: Mean Food Intake (%)): 76%

Br.Br.CNCCOc1ccc(CC(C)NCC(O)c2cccc(Cl)c2)cc1F (stereo not drawn) [Example 5, N-[2-(3-Fluoro-4-(2-methylaminoethoxy)phenyl)-1-methylethyl)-2-hydroxy-2-(3-chlorophenyl) ethanamine dihydrobromide]
Reduction in area under Blood glucose curve (%) ([1]; 1 μ moles/kg po): 38% | response vs control in vivo at 30.2 mg/kg [2, 4]: 134% | response vs control in vivo at 30.2 mg/kg ([2]; read-out: Mean Food Intake (%)): 102%

Br.Br.CCc1cccc(C(O)CNC(C)Cc2ccc(OCCNC)cc2)c1 (stereo not drawn) [Example 6, N-[2-(4-(2-Methylaminoethoxy)phenyl)-1-methylethyl]-2-hydroxy-2-(3-ethylphenyl)ethanamine dihydrobromide]
Reduction in area under Blood glucose curve (%) ([1]; 50 μ moles/kg po): 36.5% | response vs control in vivo at 28.9 mg/kg [2, 4]: 97% | response vs control in vivo at 28.9 mg/kg ([2]; read-out: Mean Food Intake (%)): 98%

CNCCOc1ccc(CC(C)NCC(O)c2ccc(Cl)cc2)cc1 (stereo not drawn) [Example 12, N-[2-(4-(2-Methylaminoethoxy)phenyl)-1-methylethyl]-2-hydroxy-2-(4-chlorophenyl)ethanamine dihydrochloride]
response vs control in vivo at 24.2 mg/kg [2, 4]: 120% | response vs control in vivo at 24.2 mg/kg ([2]; read-out: Mean Food Intake (%)): 99%

CC(Cc1ccc(OCCNCc2ccccc2)cc1)NCC(O)c1cccc(Cl)c1 (stereo not drawn) [Example 13, N-[2-4-(2-Benzylaminoethoxy)phenyl)-1-methylethyl]-2-hydroxy-2-(3-chlorophenyl)ethanamine dihydrochloride monohydrate]
Reduction in area under Blood glucose curve (%) ([1]; 1 μ moles/kg po): 62% | response vs control in vivo at 29.5 mg/kg [2, 4]: 139% | response vs control in vivo at 29.5 mg/kg ([2]; read-out: Mean Food Intake (%)): 78%

CC(Cc1ccc(OCCN2CCCCCC2)cc1)NCC(O)c1cccc(C(F)(F)F)c1 (stereo not drawn) [Example 15, N-[2-(4-(2-(1-Homopiperidine)ethoxy)phenyl)-1-methylethyl]-2-hydroxy-2-(3-trifluoromethylphenyl)-ethanamine dihydrochloride]
Reduction in area under Blood glucose curve (%) ([1]; 1 μ moles/kg po): 17% | response vs control in vivo at 26.9 mg/kg [2, 4]: 117% | response vs control in vivo at 26.9 mg/kg ([2]; read-out: Mean Food Intake (%)): 77%

CCOC(=O)NCCOc1ccc(CC(C)NCC(O)c2cccc(Cl)c2)cc1 (stereo not drawn) [Example 16, N-[2-(4-(2-Ethoxycarbonylamioethoxy)phenyl)-1-methylethyl]-2-hydroxy-2-(3-chlorophenyl)ethanamine]
Reduction in area under Blood glucose curve (%) ([1]; 1 μ moles/kg po): 68% | response vs control in vivo at 23.4 mg/kg [2, 4]: 141% | response vs control in vivo at 23.4 mg/kg ([2]; read-out: Mean Food Intake (%)): 91%

CNC(=O)NCCOc1ccc(CC(C)NCC(O)c2cccc(C(F)(F)F)c2)cc1 (stereo not drawn) [Example 17, N-[2-(4-(2-Methylaminocarbonylaminoethoxy)phenyl)-1-methylethyl]-2-hydroxy-2-(3-trifluoromethylphenyl)ethanamine]
response vs control in vivo at 22 mg/kg [2, 4]: 114% | response vs control in vivo at 22 mg/kg ([2]; read-out: Mean Food Intake (%)): 87%

CC(Cc1ccc(OCCN)cc1)NCC(O)c1cccc(C(F)(F)F)c1.Cl.Cl.O.O (stereo not drawn) [Example 19, N-[2-(4-(2-Aminoethoxy)phenyl)-1-methylethyl]-2-hydroxy-2-(3-trifluoromethylphenyl)ethanamine dihydrochloride, dihydrate]
Reduction in area under Blood glucose curve (%) ([1]; 1 μ moles/kg po): 46% | response vs control in vivo at 27.3 mg/kg [2, 4]: 135% | response vs control in vivo at 27.3 mg/kg ([2]; read-out: Mean Food Intake (%)): 94%

CNCCOc1ccc(C[C@H](C)NC[C@H](O)c2cccc(C(F)(F)F)c2)cc1 [Example 23, N-[2-(4-(2-Methylaminoethoxy)phenyl)-1-methylethyl]-2-hydroxy-2-(3-trifluoromethylphenyl)ethanamine dihydrochloride, (RS,SR) diastereoisomer]
Reduction in area under Blood glucose curve (%) ([1]; 2.5 μ moles/kg po): 20% | response vs control in vivo at 6.5 mg/kg [2, 4]: 109% | response vs control in vivo at 6.5 mg/kg ([2]; read-out: Mean Food Intake (%)): 112%

CC(Cc1ccc(OCCN2CCCC2)cc1)NCC(O)c1cccc(C(F)(F)F)c1 (stereo not drawn) [Example 25, N-[2-(4-(2-11-Pyrrolidine)ethoxy)phenyl)-1-methylethyl]-2-hydroxy-2-(3-trifluoromethylphenyl)ethanamine dihydrochloride]
response vs control in vivo at 25.5 mg/kg [2, 4]: 117% | response vs control in vivo at 25.5 mg/kg ([2]; read-out: Mean Food Intake (%)): 87%

CC(Cc1ccc(OCCN2CCCCC2)cc1)NCC(O)c1cccc(C(F)(F)F)c1 (stereo not drawn) [Example 26, N-[2-(4-(2-(1-Piperidine)ethoxy)phenyl)-1-methylethyl]-2-hydroxy-2-(3-trifluoromethylphenyl)ethanamine dihydrochloride monohydrate]
response vs control in vivo at 26.4 mg/kg [2, 4]: 125% | response vs control in vivo at 26.4 mg/kg ([2]; read-out: Mean Food Intake (%)): 63%

CCNCCOc1ccc(CC(C)NCC(O)c2cccc(C(F)(F)F)c2)cc1 (stereo not drawn) [Example 27, N-[2-(4-(2-Ethylaminoethoxy)phenyll-1-methylethyl]-2-hydroxy-2-(3-trifluoromethylphenyl)ethanaminedihydrochloride]
response vs control in vivo at 24.2 mg/kg [2, 4]: 143% | response vs control in vivo at 24.2 mg/kg ([2]; read-out: Mean Food Intake (%)): 100%

CNCCOc1ccc(C[C@@H](C)NC[C@H](O)c2cccc(Cl)c2)cc1 [Example 28, N-[2-(4-(2-Methylaminoethoxy)phenyl)-1-methylethyl]-2-hydroxy-2-(3-chlorophenyl)ethanamine dihydrochloride - (RR,SS) diastereoisomer]
Reduction in area under Blood glucose curve (%) ([1]; 0.5 μ moles/kg po): 42% | response vs control in vivo at 21.8 mg/kg [2, 4]: 135% | response vs control in vivo at 21.8 mg/kg ([2]; read-out: Mean Food Intake (%)): 108%

CNCCOc1cccc(CC(C)NCC(O)c2cccc(Cl)c2)c1 (stereo not drawn) [Example 29, N-[2-(3-(2-Methylaminoethoxy)phenyll-1-methylethyl]-2-hydroxy-2-(3-chlorophenyl)ethanaminedihydrochloride]
Reduction in area under Blood glucose curve (%) ([1]; 12.5 μ moles/kg po): 48% | response vs control in vivo at 21.8 mg/kg [2, 4]: 123% | response vs control in vivo at 21.8 mg/kg ([2]; read-out: Mean Food Intake (%)): 107%

CC(Cc1ccc(OCCN2CCOCC2)cc1)NCC(O)c1cccc(C(F)(F)F)c1 (stereo not drawn) [Example 30, N-[2-(4-(2-(1-Morpholine)ethoxy)phenyl)-1-methylethyl]-2-hydroxy-2-(3-trifluoromethylphenyl)ethanamine]
response vs control in vivo at 22.6 mg/kg [2, 4]: 125% | response vs control in vivo at 22.6 mg/kg ([2]; read-out: Mean Food Intake (%)): 95%

CC(COc1ccc(CC(C)NCC(O)c2cccc(C(F)(F)F)c2)cc1)NCc1ccccc1 (stereo not drawn) [Example 31, N-[2-(4-(2-Benzylaminopropoxy)phenyl)-1-methylethyl]-2-hydroxy-2-(3-trifluoromethylphenyl)ethanamine]
Reduction in area under Blood glucose curve (%) ([1]; 50 μ moles/kg po): 45% | response vs control in vivo at 24.3 mg/kg [2, 4]: 100% | response vs control in vivo at 24.3 mg/kg ([2]; read-out: Mean Food Intake (%)): 59%

CNCCCCCCOc1ccc(CC(C)NCC(O)c2cccc(C(F)(F)F)c2)cc1 (stereo not drawn) [Example 33, N-[2-(4-(6-Methylaminohexyloxy)phenyl)-1-methylethyl]-2-hydroxy-2-(3-trifluoromethylphenyl)-ethanamine dihydrochloride]
response vs control in vivo at 26.3 mg/kg [2, 4]: 131% | response vs control in vivo at 26.3 mg/kg ([2]; read-out: Mean Food Intake (%)): 80%

NCCOc1ccc(CCNCC(O)c2cccc(C(F)(F)F)c2)cc1 (stereo not drawn) [Example 34, N-[2-(4-(2-Aminoethoxy)phenyl)ethyl]-2-hydroxy-2-(3-trifluoromethylphenyl)ethanamine]
response vs control in vivo at 18.4 mg/kg [2, 4]: 117% | response vs control in vivo at 18.4 mg/kg ([2]; read-out: Mean Food Intake (%)): 103%

CN(C)CCOc1ccc(CCC(C)(C)NCC(O)c2ccccc2)cc1.Cl.Cl (stereo not drawn) [Example 35, N-[3-(4-(2-Dimethylaminoethoxy)phenyl)-1,1-dimethylpropyl]-2-hydroxy-2-phenylethanamine dihydrochloride]
Reduction in area under Blood glucose curve (%) ([1]; 250 μ moles/kg po): 18% | response vs control in vivo at 23.1 mg/kg [2, 4]: 95% | response vs control in vivo at 23.1 mg/kg ([2]; read-out: Mean Food Intake (%)): 83%

CCN(CC)CCOc1ccc(CC(C)NCC(O)c2cccc(C(F)(F)F)c2)cc1.O=C(O)/C=C/C(=O)O (stereo not drawn) [Example 36, N-[2-(4-(2-Diethylaminoethoxy)phenyl)-1-methylethyl]-2-hydroxy-2-(3-trifluoromethylphenyl)ethanamine fumarate]
Reduction in area under Blood glucose curve (%) ([1]; 50 μ moles/kg po): 56% | response vs control in vivo at 22.7 mg/kg [2, 4]: 132% | response vs control in vivo at 22.7 mg/kg ([2]; read-out: Mean Food Intake (%)): 78%

CC(Cc1ccc(OCC#N)cc1)NCC(O)c1cccc(Cl)c1 (stereo not drawn) [Example 38, N-[2-(4-Cyanomethoxylphenyl)-1-methylethyl]-2-hydroxy-2-(3-chlorophenyl)ethanamine]
Reduction in area under Blood glucose curve (%) ([1]; 0.5 μ moles/kg po): 63% | response vs control in vivo at 19.2 mg/kg [2, 4]: 132% | response vs control in vivo at 19.2 mg/kg ([2]; read-out: Mean Food Intake (%)): 81%

CC(C)(C)NCC(O)c1ccc(O)c(CO)c1 (stereo not drawn) [Salbutamol, reference compound]
Emax ([3]; read-out: Heart Rate): 100% | Emax ([3]; read-out: Heart Tension): 100%
